Measured values taken from EP4603105A1, “PHARMACEUTICAL COMPOSITION CONTAINING CYCLIC COMPOUND HAVING SELECTIVE KRAS INHIBITORY EFFECT AGAINST HRAS AND NRAS” (CHUGAI SEIYAKU KABUSHIKI KAISHA, priority 2022, dated 2024).

Experiments:
HRAS wild-type protein = HRAS wild-type protein (Homo sapiens, UniProt P01112); assay: Binding to HRAS by surface plasmon resonance (SPR), KD and KD ratio to KRAS; details: ratio of KD for HRAS wild-type protein to KD for KRAS
Outline: (§1)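 Compound binding is evaluated by SPR single-cycle kinetics, with concentrations added intermittently from low to high for 75 s each. Target surfaces carry GDP-loaded biotinylated Avi-RAS at about 100–300 RU, regenerated after each cycle; temperature 30°C. A 1:1 binding model gives KD.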

[1] = target: GDP-bound KRAS wild-type protein (Homo sapiens, UniProt P01116); assay: Binding to KRAS by surface plasmon resonance (SPR), dissociation constant KD
Outline: as §1

[2] = target: GDP-bound NRAS wild-type protein (Homo sapiens, UniProt P01111); assay: Binding to NRAS by surface plasmon resonance (SPR), KD and KD ratio to KRAS; details: ratio of KD for GDP-bound NRAS wild-type protein to KD for KRAS
Outline: as §1

[3] = test system: human lung cancer strain NCI-H441; assay: NCI-H441 cell proliferation inhibitory activity (CellTiter-Glo, 4 days); assay type: cell-based; details: NCI-H441 cells, 4 days, read-out: NCl-H441 IC50
Outline: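 Proliferation was scored by […] measured after the reagent was added to cultures kept at 37°C in 5% carbon dioxide.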

GDP-bound NRAS wild-type protein, sequence (P01111 whole entry): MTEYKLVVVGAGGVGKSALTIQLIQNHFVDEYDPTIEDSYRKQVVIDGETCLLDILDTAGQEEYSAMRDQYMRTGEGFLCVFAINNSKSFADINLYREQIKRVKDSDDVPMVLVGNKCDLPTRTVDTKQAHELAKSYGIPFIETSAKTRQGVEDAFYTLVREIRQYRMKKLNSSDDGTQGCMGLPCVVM
HRAS wild-type protein, sequence (P01112 whole entry): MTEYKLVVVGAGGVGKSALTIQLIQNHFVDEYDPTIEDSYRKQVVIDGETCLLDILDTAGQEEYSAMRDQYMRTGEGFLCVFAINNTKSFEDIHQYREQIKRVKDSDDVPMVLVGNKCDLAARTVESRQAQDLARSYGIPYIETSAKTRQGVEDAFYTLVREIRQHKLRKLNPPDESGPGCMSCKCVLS
GDP-bound KRAS wild-type protein, sequence (P01116 1-188 isoform P01116-2): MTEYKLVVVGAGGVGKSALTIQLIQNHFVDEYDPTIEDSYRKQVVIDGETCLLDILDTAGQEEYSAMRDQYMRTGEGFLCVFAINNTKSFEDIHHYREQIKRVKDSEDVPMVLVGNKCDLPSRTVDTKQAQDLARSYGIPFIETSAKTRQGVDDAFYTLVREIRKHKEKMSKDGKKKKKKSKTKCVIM

Compound | Kd ([1]; Single Cycle Kinetics) [nM] | IC50 [3] [nM] | Kd ([1]; 1:1 binding model) [nM] | HRAS /KRAS (HRAS wild-type protein) | NRAS /KRAS [2]
C#CCN1CC(=O)N(C)[C@H]2C/C=C\CCN(C2=O)[C@@H](Cc2ccc(C(F)F)cc2)C(=O)N(C)CC(=O)N[C@@H](CCc2cc(F)c(C(F)(F)F)c(F)c2)C(=O)N2C[C@H](OC(C)C)C[C@H]2C(=O)N(C)C2(CCC2)C(=O)N(C)[C@@H](C(CC)CC)C(=O)N(C)[C@H](C(=O)N(C)C)CC(=O)N(C)[C@@H](COCCC)C(=O)N[C@@H]([C@@H](C)OC)C1=O [PP3485] | 0.75 | 12 | – | A (a compound having 10 or more and less than 20 is denoted as A) | A (a compound having 10 or more and less than 20 is denoted as A)
CCC[C@H]1C(=O)N[C@@H]([C@@H](C)CC)C(=O)N(C)CC(=O)N(C)[C@H]2C/C=C\CCN(C2=O)[C@@H](Cc2ccc(C)cc2)C(=O)N(C)CC(=O)N[C@@H](CCc2ccc(C(F)(F)F)c(Cl)c2)C(=O)N2CC3(CC3)C[C@H]2C(=O)N(C)C2(CCC2)C(=O)N(C)[C@@H](C(CC)CC)C(=O)N(C)[C@H](C(=O)N(C)C)CC(=O)N1C [PP3300] | 0.13 | 11.2 | – | B (a compound having 3 or more and less than 10 is denoted as B) | A (a compound having 10 or more and less than 20 is denoted as A)
CCC[C@H]1C(=O)N[C@@H]([C@@H](C)CC)C(=O)N(C)CC(=O)N(C)[C@H]2C/C=C\CCN(C2=O)[C@@H](Cc2ccc(C)cc2)C(=O)N(C)CC(=O)N[C@@H](CCc2ccc(C(F)(F)F)c(Cl)c2)C(=O)N2CC3(CC3)C[C@H]2C(=O)N(C)C2(CCC2)C(=O)N(C)[C@@H](C2CCCC2)C(=O)N(C)[C@H](C(=O)N(C)C)CC(=O)N1C [PP3298] | 0.34 | 3.4 | – | B (a compound having 3 or more and less than 10 is denoted as B) | B (a compound having 3 or more and less than 10 is denoted as B)
CCO[C@@H]1C[C@H]2C(=O)NC3(CC(C)(C)C3)C(=O)N(C)[C@@H](C3CCCC3)C(=O)N(C)[C@H](C(=O)N(C)C)CC(=O)N(C)[C@@H]([C@H](C)OC)C(=O)N[C@@H]([C@@H](C)CC)C(=O)N(C)CC(=O)N(C)[C@H]3C/C=C\CCN(C3=O)[C@@H](Cc3ccc(C(F)(F)F)cc3)C(=O)N(C)CC(=O)N[C@@H](CCc3ccc(C(F)(F)F)c(OC)c3)C(=O)N2C1 [PP3167] | 0.1 | 9.8 | – | A (a compound having 10 or more and less than 20 is denoted as A) | B (a compound having 3 or more and less than 10 is denoted as B)
CCOC[C@H]1C(=O)N[C@@H]([C@@H](C)CC)C(=O)N(C)CC(=O)N(C)[C@H]2C/C=C\CCN(C2=O)[C@@H](Cc2ccc(C)cc2)C(=O)N(C)CC(=O)N[C@@H](CCc2ccc(C(F)(F)F)c(OC)c2)C(=O)N2C[C@H](OCC)C[C@H]2C(=O)NC2(CC(C)(C)C2)C(=O)N(C)[C@@H](C2CCCC2)C(=O)N(C)[C@H](C(=O)N(CC)CC)CC(=O)N1C [PP2406] | – | 21.3 | 0.29 | A (a compound having 10 or more and less than 20 is denoted as A) | A (a compound having 10 or more and less than 20 is denoted as A)
CCO[C@@H]1C[C@H]2C(=O)NC3(CC(C)(C)C3)C(=O)N(C)[C@@H](C(CC)CC)C(=O)N(C)[C@H](C(=O)N(C)C)CC(=O)N(C)[C@@H](COC)C(=O)N[C@@H]([C@@H](C)CC)C(=O)N(C)CC(=O)N(C)[C@H]3C/C=C\CCN(C3=O)[C@@H](CC3CCC(F)(F)CC3)C(=O)N(C)CC(=O)N[C@@H](CCc3cc(F)c(C(F)(F)F)c(F)c3)C(=O)N2C1 [PP2440] | – | 20.1 | 0.44 | A (a compound having 10 or more and less than 20 is denoted as A) | A (a compound having 10 or more and less than 20 is denoted as A)
C#CCN1CC(=O)N(C)[C@H]2C/C=C\CCN(C2=O)[C@@H](Cc2ccc(C(F)F)cc2)C(=O)N(C)CC(=O)N[C@@H](CCc2cc(F)c(C(F)(F)F)c(F)c2)C(=O)N2C[C@H](OCC)C[C@H]2C(=O)N(C)C2(CCC2)C(=O)N(C)[C@@H](C(CC)CC)C(=O)N(C)[C@H](C(=O)N(C)C)CC(=O)N(C)[C@@H](COCCC)C(=O)N[C@@H]([C@@H](C)OC)C1=O [PP3506] | 0.73 | 12.5 | – | A (a compound having 10 or more and less than 20 is denoted as A) | A (a compound having 10 or more and less than 20 is denoted as A)
CCO[C@@H]1C[C@H]2C(=O)OC3(CCC3)C(=O)N(C)[C@@H](C3CCCC3)C(=O)N(C)[C@H](C(=O)N(C)C)CC(=O)N(C)[C@@H]([C@@H](C)OC)C(=O)N[C@@H]([C@@H](C)CC)C(=O)N(C3CC3)CC(=O)N(C)[C@H]3C/C=C\CCN(C3=O)[C@@H](Cc3ccc(C(F)(F)F)cc3)C(=O)N(C)CC(=O)N[C@@H](CCc3ccc(C(F)(F)F)c(OC)c3)C(=O)N2C1 [PP3375] | 0.41 | 6 | – | B (a compound having 3 or more and less than 10 is denoted as B) | A (a compound having 10 or more and less than 20 is denoted as A)

The remaining compounds from weak to strong by IC50 [3], led by results:

Kd ([1]; Single Cycle Kinetics) [nM] | IC50 [3] [nM] | Kd ([1]; 1:1 binding model) [nM] | Compound | HRAS /KRAS (HRAS wild-type protein) | NRAS /KRAS [2]
– | 142 | 3.8 | CCC(CC)[C@H]1C(=O)N(C)[C@H](C(=O)N(C)C)CC(=O)N(C)[C@@H](COC)C(=O)N[C@@H]([C@@H](C)CC)C(=O)N(C2CC2)CC(=O)N(C)[C@H]2C/C=C\CCN(C2=O)[C@@H](CC2CCC(F)(F)CC2)C(=O)N(C)CC(=O)N[C@@H](CCc2ccc(Cl)c(Cl)c2)C(=O)N2C[C@H](OC(C)C)C[C@H]2C(=O)NC2(CC(C)(C)C2)C(=O)N1C [PP2525] | A (a compound having 10 or more and less than 20 is denoted as A) | AA (a compound having 20 or more is denoted as AA)
1.1 | 102 | – | CCCOC[C@H]1C(=O)N[C@@H](C2CCCC2)C(=O)N(CCC)CC(=O)N(C)[C@H]2C/C=C\CCN(C2=O)[C@@H](Cc2ccc(C)cc2)C(=O)N(C)CC(=O)N[C@@H](CCc2ccc(Cl)c(C(F)(F)F)c2)C(=O)N2C[C@H](OC(C)C)C[C@H]2C(=O)N(C)C2(CCC2)C(=O)N(C)[C@@H](C(CC)CC)C(=O)N(C)[C@H](C(=O)N(C)C)CC(=O)N1C [PP3501] | A (a compound having 10 or more and less than 20 is denoted as A) | AA (a compound having 20 or more is denoted as AA)
– | 86.7 | 1.1 | CCC(CC)[C@H]1C(=O)N(C)[C@H](C(=O)N(C)C)CC(=O)N(C)[C@@H](COC)C(=O)N[C@@H]([C@@H](C)CC)C(=O)N2CCC[C@H]2C(=O)N(C)[C@H]2C/C=C\CCN(C2=O)[C@@H](Cc2ccc(C(F)(F)F)cc2)C(=O)N(C)CC(=O)N[C@@H](CCc2ccc(Cl)c(Cl)c2)C(=O)N2C[C@H](OC3CCC3)C[C@H]2C(=O)NC2(CC(C)(C)C2)C(=O)N1C [PP2645] | A (a compound having 10 or more and less than 20 is denoted as A) | AA (a compound having 20 or more is denoted as AA)
0.35 | 26.2 | – | CCCOC[C@@H]1NC(=O)C[C@@H](C(=O)N(C)CCC)N(C)C(=O)[C@H](C2CCCC2)N(C)C(=O)C2(CC(C)(C)C2)NC(=O)[C@@H]2C[C@@H](OCC)CN2C(=O)[C@H](CCc2cc(F)c(C(F)(F)F)c(F)c2)NC(=O)CN(C)C(=O)[C@H](Cc2ccc(C(F)(F)F)cc2)N2CC/C=C\C[C@@H](C2=O)N(C)C(=O)CN(C)C(=O)[C@H]([C@@H](C)CC)NC1=O [PP3451] | A (a compound having 10 or more and less than 20 is denoted as A) | A (a compound having 10 or more and less than 20 is denoted as A)
0.86 | 9.1 | – | CCC[C@H]1C(=O)N[C@@H]([C@@H](C)CC)C(=O)N(C2CC2)CC(=O)N(C)[C@H]2C/C=C\CCN(C2=O)[C@@H](Cc2ccc(C(F)(F)F)cc2)C(=O)N(C)CC(=O)N[C@@H](CCc2ccc(C(F)(F)F)c(OC)c2)C(=O)N2C[C@H](OCC)C[C@H]2C(=O)OC2(CCC2)C(=O)N(C)[C@@H](C2CCCC2)C(=O)N(C)[C@H](C(=O)N(C)C)CC(=O)N1C [PP3369] | A (a compound having 10 or more and less than 20 is denoted as A) | A (a compound having 10 or more and less than 20 is denoted as A)
0.083 | 6.2 | – | CCC[C@H]1C(=O)N[C@@H](C2CCCC2)C(=O)N(C)CC(=O)N(C)[C@H]2C/C=C\CCN(C2=O)[C@@H](Cc2ccc(C(F)F)cc2)C(=O)N(C)CC(=O)N[C@@H](CCc2cc(F)c(C(F)(F)F)c(OC)c2)C(=O)N2C[C@H](OC(C)C)C[C@H]2C(=O)N(C)C2(CCC2)C(=O)N(C)[C@@H](C(CC)CC)C(=O)N(C)[C@H](C(=O)N(C)C)CC(=O)N1C [PP3499] | B (a compound having 3 or more and less than 10 is denoted as B) | A (a compound having 10 or more and less than 20 is denoted as A)
0.28 | 4.3 | – | CCO[C@@H]1C[C@H]2C(=O)OC3(CCC3)C(=O)N(C)[C@@H](C3CCCC3)C(=O)N(C)[C@H](C(=O)N(C)C)CC(=O)N(C)[C@@H]([C@H](C)OC)C(=O)N[C@@H]([C@@H](C)CC)C(=O)N(C)CC(=O)N(C)[C@H]3C/C=C\CCN(C3=O)[C@@H](Cc3ccc(C)cc3)C(=O)N(C)CC(=O)N[C@@H](CCc3ccc(C(F)(F)F)c(OC)c3)C(=O)N2C1 [PP3397] | B (a compound having 3 or more and less than 10 is denoted as B) | A (a compound having 10 or more and less than 20 is denoted as A)
